Measurements published in patent US9199941B2, “Pyrazole indanyl carboxamides” (BAYER CROPSCIENCE AG, priority 2012, dated 2015).
Several values for one entry are separate records, joined by “and”; a condition that tells them apart may be missing. Equal values may be shown once. Read-outs that look alike come from different tables or passages of the source.

How the values were obtained:
[1] = log P by HPLC on reversed phase columns (EEC directive 79/831 Annex V.A8); type: physicochemical
Puccinia recondita = assay: In vivo preventive test on Puccinia recondita (brown rust on wheat); details: preventive spray, wheat plants, grading 12 days after contamination
Description: Plants, used as controls, are treated with the mixture of acetone/tween/DMSO/water not containing the active material. After 24 hours, the plants are contaminated by spraying the leaves with an aqueous suspension of Puccinia […] spores (100 000 spores per ml). […] Grading (% of efficacy) is carried out 12 days after the contamination, in comparison with the control plants.

Uromyces appendiculatus = assay: In vivo preventive test on Uromyces appendiculatus (bean rust); details: preventive spray, bean plants, grading 11 days after contamination
Description: Bean plants (“Saxa” variety), sown in starter cups on a 50/50 peat soil-pozzolana substrate and grown at 24° C., are treated at the 2-leaf stage (9 cm height) by spraying with the active ingredient prepared as described above. Plants, used as controls, are treated with the mixture of acetone/tween/DMSO/water not containing the active material. After 24 hours, the plants are contaminated by spraying the leaves with an aqueous suspension of Uromyces appendiculatus spores (150 000 spores per ml). […] Grading (% of efficacy) is carried out 11 days after the contamination, in comparison with the control plants.

Septoria tritici = assay: In vivo preventive test on Septoria tritici (leaf spot on wheat); details: 500 ppm, preventive spray, wheat plants, grading 24 days after contamination
Description: Wheat plants (“Scipion” variety), sown in starter cups on a 50/50 peat soil-pozzolana substrate and grown at 22° C., are treated at the 1-leaf stage (10 cm height) by spraying with the active ingredient prepared as described above. Plants, used as controls, are treated with the mixture of acetone/tween/DMSO/water not containing the active material. After 24 hours, the plants are contaminated by spraying the leaves with an aqueous suspension of cryopreserved Septoria tritici spores (500 000 spores per ml). […] Grading (% of efficacy) is carried out 24 days after the contamination, in comparison with the control plants.

Sphaerotheca fuliginea = assay: In vivo preventive test on Sphaerotheca fuliginea (powdery mildew on cucurbits); details: preventive spray, gherkin plants, grading 12 days after contamination
Description: Gherkin plants (“Vert petit de Paris” variety), sown in starter cups on a 50/50 peat soil-pozzolana substrate and grown at 24° C., are treated at the Z11 cotyledon stage by spraying with the active ingredient prepared as described above. Plants, used as controls, are treated with the mixture of acetone/tween/DMSO/water not containing the active material. After 24 hours, the plants are contaminated by spraying the cotyledons with an aqueous suspension of Sphaerotheca fuliginea spores (100 000 spores per ml). The spores are collected from infected plants. The contaminated gherkin plants are incubated at about 20° C. and at 70-80% relative humidity. Grading (% of efficacy) is carried out 12 days after the contamination, in comparison with the control plants.

Pyrenophora teres = assay: In vivo preventive test on Pyrenophora teres (net blotch on barley); details: 500 ppm, preventive spray, barley plants, incubated 48 hours then 12 days
Description: Barley plants (“Plaisant” variety), sown in starter cups on a 50/50 peat soil-pozzolana substrate and grown at 22° C., are treated at the 1-leaf stage (10 cm height) by spraying with the active ingredient prepared as described above. Plants, used as controls, are treated with the mixture of acetone/tween/DMSO/water not containing the active material. After 24 hours, the plants are contaminated by spraying the leaves with an aqueous suspension of Pyrenophora teres spores (12 000 spores per ml). The spores are collected from a 12-day-old culture.

[2] = Table 1, compounds of formula (I), method [a]: LC-MS at pH 2.7, 0.1% formic acid in water / acetonitrile
[3] = Table 2, amines of formula (III-a), method [a]: LC-MS at pH 2.7, 0.1% formic acid in water / acetonitrile

Compound	Eff. % (Puccinia recondita; 500 ppm) [%]	Eff. % (Uromyces appendiculatus; 500 ppm) [%]	logP [1, 2]	logP [1, 3]	further results
Cc1nn(C)c(C)c1C(=O)Nc1cccc2c1C(C)CC21CC1 (centres unmarked) [Example 22, 1,3,5-trimethyl-N-(3′-methyl-2′,3′-dihydrospiro[cyclopropane-1,1′-inden]-4′-yl)-1H-pyrazole-4-carboxamide]	81	100	–	–	chromatographic logP ([1]; pH 2.7): 2.7
CC1CC2(CC2)c2cccc(NC(=O)c3c(C(F)(F)F)nn(C)c3F)c21 (centres unmarked) [Example 55]	–	–	3.72[a]	–	Eff. % (Puccinia recondita; 100 ppm): 85%
Cc1nn(C)c(F)c1C(=O)Nc1cccc2c1CCC21CC1 [Example 15]	94	100	–	–	–
CCC1(C)CCc2c(N)cccc21 (centres unmarked) [Example III-a-17]	–	–	–	1.88[a]	–
CON=C1CC(C)c2c(NC(=O)c3cn(C)nc3C(F)F)cccc21 (centres unmarked) [Example 31]	–	99	2.45[a]	–	Eff. % (Septoria tritici): 79%
Cn1cc(C(=O)Nc2cccc3c2C(C)(C)CC3)c(C(F)F)n1 [Example 36]	–	–	2.8[a]	–	–
CC1CC(C(C)C)c2cccc(N)c21 (centres unmarked) [Example III-a-11]	–	–	–	2.73[a]	–
Cc1nn(C)c(C)c1C(=O)Nc1cccc2c1C(C)CC2CC(C)C (centres unmarked) [Example 14]	98	99	3.87[a]	–	–
CCc1c(C(=O)Nc2cccc3c2C(C)CC32CC2)cnn1C (centres unmarked) [Example 54]	–	–	2.99[a]	–	–
Cn1cc(C(=O)Nc2cccc3c2CCC3O)c(C(F)F)n1 (centres unmarked) [Example 37]	–	–	1.61[a]	–	–
Cc1nn(C)c(Cl)c1C(=O)Nc1cccc2c1C(C)CC21CC1 (centres unmarked) [Example 47]	–	–	3.44[a]	–	Eff. % (Puccinia recondita; 100 ppm): 95%; Eff. % (Uromyces appendiculatus; 100 ppm): 100%
CC1CC2(CC2)c2cccc(NC(=O)c3c(C4CC4)nn(C)c3Cl)c21 (centres unmarked) [Example 45]	–	–	4.04[a]	–	–
CON=C1CCc2c(N)cccc21.Cl [III-a-9]	–	–	–	1.26[a]	–
Cc1c(C(=O)Nc2cccc3c2C(C)CC32CC2)cnn1C (centres unmarked) [Example 48]	–	–	2.55[a]	–	Eff. % (Puccinia recondita; 100 ppm): 98%; Eff. % (Sphaerotheca fuliginea; 100 ppm): 81%; Eff. % (Uromyces appendiculatus; 100 ppm): 100%
CON=C1CCc2c(NC(=O)c3cn(C)nc3C(F)F)cccc21 [Example 23]	94	–	2.59[a]	–	–
CCON=C1CCc2c(N)cccc21.Cl [III-a-10]	–	–	–	1.75[a]	–
CC1CC(CC(C)(C)C)c2cccc(N)c21 (centres unmarked) [Example III-a-22]	–	–	–	3.83[a]	–
Cn1cc(C(=O)Nc2cccc3c2CCC3C(C)(C)C)c(C(F)F)n1 (centres unmarked) [Example 28]	100	100	3.94[a]	–	Eff. % (Septoria tritici): 86%; Eff. % (Sphaerotheca fuliginea; 500 ppm): 100%
CC1CC(C)c2c(N)cccc21 (centres unmarked) [III-a-15]	–	–	–	1.76[a]	–
CC(C)c1nn(C)cc1C(=O)Nc1cccc2c1C(C)CC21CC1 (centres unmarked) [Example 56]	–	–	3.29[a]	–	–
Cc1nn(C)c(C)c1C(=S)Nc1cccc2c1C(C)CC2CC(C)C (centres unmarked) [Example 40]	98	100	4.25[a]	–	–
CCc1nn(C)cc1C(=O)Nc1cccc2c1C(C)CC21CC1 (centres unmarked) [Example 51]	–	–	2.99[a]	–	–
Cc1nn(C)c(C)c1C(=O)Nc1cccc2c1CCC21CC1 [Example 13]	89	100	2.57[a]	–	–
Cn1cc(C(=O)Nc2cccc3c2CCC32CC2(Cl)Cl)c(C(F)F)n1 (centres unmarked) [Example 5]	–	100	3.33[a]	–	Eff. % (Septoria tritici): 71%; Eff. % (Sphaerotheca fuliginea; 500 ppm): 100%
CC1CC2(CC2(Cl)Cl)c2cccc(NC(=O)c3cn(C)nc3C(F)F)c21 (centres unmarked) [Example 4]	100	100	3.5[a]	–	Eff. % (Septoria tritici): 100%; Eff. % (Sphaerotheca fuliginea; 500 ppm): 100%
CC1CC2(CC2(Cl)Cl)c2cccc(N)c21 (mixture of isomers) [Example III-a-1]	–	–	–	3.04 and 2.94	–

Compound	Eff. % (Puccinia recondita; 500 ppm) [%]	Eff. % (Uromyces appendiculatus; 500 ppm) [%]	logP [1, 2]	logP [1, 3]	further results
Cc1nn(C)c(C)c1C(=S)Nc1cccc2c1C(C)CC21CC1 (centres unmarked) [Example 39, 1,3,5-trimethyl-N-(3′-methyl-2′,3′-dihydrospiro[cyclopropane-1,1′-inden]-4′-yl)-1H-pyrazole-4-carbothioamide]	89	100	–	–	chromatographic logP ([1]; pH 2.7): 3.06
CCCCON=C1CCc2c(NC(=O)c3cn(C)nc3C(F)F)cccc21 [Example 21]	–	–	3.59[a]	–	Eff. % (Septoria tritici): 70%
Cc1nn(C)c(C)c1C(=O)Nc1cccc2c1C(C)CC2C(C)(C)C (centres unmarked) [Example 16]	98	100	4.13[a]	–	–
Cc1nn(C)c(O)c1C(=O)Nc1cccc2c1CCC21CC1 [Example 26]	–	–	2.04[a]	–	Eff. % (Septoria tritici): 71%
CC(C)CC1CCc2c(N)cccc21 (centres unmarked) [Example III-a-14]	–	–	–	2.64[a]	–
CCON=C1CC(C)c2c(NC(=O)c3c(C)nn(C)c3F)cccc21 (centres unmarked) [Example 29]	81	80	2.76[a]	–	Eff. % (Pyrenophora teres): 75%
CON=C1CC(C)c2c(N)cccc21.Cl (centres unmarked) [III-a-20]	–	–	–	1.76[a]	–
CC(C)CC1CCc2c(NC(=O)c3cn(C)nc3C(F)F)cccc21 (centres unmarked) [Example 32]	98	100	4.11[a]	–	Eff. % (Septoria tritici): 71%; Eff. % (Sphaerotheca fuliginea; 500 ppm): 98%
CC(C)(C)C1CCc2c(N)cccc21 (centres unmarked) [Example III-a-21]	–	–	–	2.4[a]	–
CC(C)C1CCc2c(NC(=O)c3cn(C)nc3C(F)F)cccc21 (centres unmarked) [Example 2]	98	100	3.6[a]	–	Eff. % (Sphaerotheca fuliginea; 500 ppm): 94%
CC1CC2(CCCC2)c2cccc(NC(=O)c3cn(C)nc3C(F)F)c21 (centres unmarked) [Example 49]	–	–	4.31[a]	–	Eff. % (Puccinia recondita; 100 ppm): 89%
CCCON=C1CCc2c(NC(=O)c3cn(C)nc3C(F)F)cccc21 [Example 30]	71	95	3.15[a]	–	Eff. % (Septoria tritici): 85%; Eff. % (Sphaerotheca fuliginea; 500 ppm): 90%
CCON=C1CC(C)c2c(N)cccc21.Cl (centres unmarked) [Example III-a-19]	–	–	–	2.26[a]	–
CC1CC2(CC2)c2cccc(NC(=O)c3cn(C)nc3C(F)(F)F)c21 (centres unmarked) [Example 10]	100	99	3.35[a]	–	–
Nc1cccc2c1CCC21CC1 [Example III-a-2]	–	–	–	1.37[a]	–
Cn1cc(C(=O)Nc2cccc3c2CCC32CC2)c(C(F)F)n1 [Example 17]	98	100	2.96[a]	–	Eff. % (Pyrenophora teres): 70%
CC1CC(C(C)C)c2cccc(N)c21 (centres unmarked) [Example III-a-12]	–	–	–	2.86[a]	–
CCCCON=C1CCc2c(N)cccc21.Cl [III-a-8]	–	–	–	2.86[a]	–
CC1CC2(CC2)c2cccc(N)c21 (centres unmarked) [Example III-a-16, 3′-methyl-2′,3′-dihydrospiro[cyclopropane-1,1′-inden]-4′-amine]	–	–	–	–	chromatographic logP ([1]; reversed phase HPLC columns, Table 2, amines of formula (III-a), method [a]: LC-MS at pH 2.7, 0.1% formic acid in water / acetonitrile, read-out: logP): 1.93
Cc1nn(C)c(F)c1C(=S)Nc1cccc2c1C(C)CC2CC(C)(C)C (centres unmarked) [Example 43]	98	100	4.87[a]	–	Eff. % (Sphaerotheca fuliginea; 500 ppm): 100%
CC1CCc2c(NC(=O)c3cn(C)nc3C(F)F)cccc21 (centres unmarked) [Example 50]	–	–	3.01[a]	–	Eff. % (Puccinia recondita; 100 ppm): 78%
CC(C)CC1CC(C)c2c(N)cccc21 (centres unmarked) [Example III-a-23]	–	–	–	3.42[a]	–
CCCON=C1CC(C)c2c(N)cccc21.Cl (centres unmarked) [Example III-a-18]	–	–	–	2.78[a]	–
CCCON=C1CCc2c(N)cccc21.Cl [III-a-7]	–	–	–	2.26[a]	–
Cc1nn(C)c(F)c1C(=O)Nc1cccc2c1C(C)CC2CC(C)(C)C (centres unmarked) [Example 35]	98	100	4.61[a]	–	Eff. % (Sphaerotheca fuliginea; 500 ppm): 100%
